Assay results as given in PubChem BioAssay (NCI).
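Dose response: 5 concentrations. Exposure: 48 h. Format: 96-well plates. Endpoint: linear interpolation; highest concentration if not reached. GI50 marks 50% less growth. TGI denotes the concentration required for complete inhibition of growth.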

Columns and labels:
Experiment in all cases: growth of human tumour cells (NCI), 48 h
786-0 renal = test system: 786-0 renal
A498 renal = test system: A498 renal
A549 NSCLC = test system: A549 NSCLC
ACHN renal = test system: ACHN renal
BT-549 breast = test system: BT-549 breast
CAKI-1 renal = test system: CAKI-1 renal
CCRF-CEM leukemia = test system: CCRF-CEM leukemia
COLO 205 colon = test system: COLO 205 colon
DU-145 prostate = test system: DU-145 prostate
EKVX NSCLC = test system: EKVX NSCLC
HCC-2998 colon = test system: HCC-2998 colon
HCT-116 colon = test system: HCT-116 colon
HCT-15 colon = test system: HCT-15 colon
HL-60(TB) leukemia = test system: HL-60(TB) leukemia
HOP-62 NSCLC = test system: HOP-62 NSCLC
HOP-92 NSCLC = test system: HOP-92 NSCLC
HS 578T breast = test system: HS 578T breast
HT29 colon = test system: HT29 colon
IGROV1 ovarian = test system: IGROV1 ovarian
K-562 leukemia = test system: K-562 leukemia
KM12 colon = test system: KM12 colon
LOX IMVI melanoma = test system: LOX IMVI melanoma
M14 melanoma = test system: M14 melanoma
MALME-3M melanoma = test system: MALME-3M melanoma
MCF7 breast = test system: MCF7 breast
MDA-MB-231 breast = test system: MDA-MB-231 breast
MDA-MB-435 = test system: MDA-MB-435
MOLT-4 leukemia = test system: MOLT-4 leukemia
NCI-H226 lung = test system: NCI-H226 lung
NCI-H23 lung = test system: NCI-H23 lung
NCI-H460 lung = test system: NCI-H460 lung
NCI-H522 lung = test system: NCI-H522 lung
NCI/ADR-RES ovarian = test system: NCI/ADR-RES ovarian
OVCAR-3 ovarian = test system: OVCAR-3 ovarian
OVCAR-4 ovarian = test system: OVCAR-4 ovarian
OVCAR-5 ovarian = test system: OVCAR-5 ovarian
OVCAR-8 ovarian = test system: OVCAR-8 ovarian
PC-3 prostate = test system: PC-3 prostate
RPMI-8226 leukemia = test system: RPMI-8226 leukemia
RXF 393 renal = test system: RXF 393 renal
SF-268 CNS = test system: SF-268 CNS
SF-295 CNS = test system: SF-295 CNS
SF-539 CNS = test system: SF-539 CNS
SK-MEL-2 melanoma = test system: SK-MEL-2 melanoma
SK-MEL-28 melanoma = test system: SK-MEL-28 melanoma
SK-MEL-5 melanoma = test system: SK-MEL-5 melanoma
SK-OV-3 ovarian = test system: SK-OV-3 ovarian
SN12C renal = test system: SN12C renal
SNB-19 CNS = test system: SNB-19 CNS
SNB-75 CNS = test system: SNB-75 CNS
SR leukemia = test system: SR leukemia
SW-620 colon = test system: SW-620 colon
T-47D breast = test system: T-47D breast
TK-10 renal = test system: TK-10 renal
U251 CNS = test system: U251 CNS
UACC-257 melanoma = test system: UACC-257 melanoma
UACC-62 melanoma = test system: UACC-62 melanoma
UO-31 renal = test system: UO-31 renal

## CCOC(=O)c1ccc2c(c1)[n+](=O)c(C(C)=O)c(C(F)(F)F)n2[O-]
786-0 renal
  GI50: 1.67 µM
  TGI: 3.21 µM
A498 renal
  GI50: 1.33 µM
  TGI: 3.16 µM
A549 NSCLC
  GI50: 2.04 µM
  TGI: 4.39 µM
ACHN renal
  GI50: 1.59 µM
  TGI: 3.01 µM
BT-549 breast
  GI50: 1.54 µM
  TGI: 3.21 µM
CAKI-1 renal
  GI50: 1.39 µM
  TGI: 2.94 µM
CCRF-CEM leukemia
  GI50: 1.68 µM
  TGI: 4.59 µM
COLO 205 colon
  GI50: 1.54 µM
  TGI: 3 µM
DU-145 prostate
  GI50: 1.57 µM
  TGI: 2.96 µM
EKVX NSCLC
  GI50: 1.82 µM
  TGI: 3.96 µM
HCC-2998 colon
  GI50: 1.05 µM
  TGI: 2.45 µM
HCT-116 colon
  GI50: 1.39 µM
  TGI: 3.34 µM
HCT-15 colon
  GI50: 1.4 µM
  TGI: 3.22 µM
HL-60(TB) leukemia
  GI50: 1.44 µM
  TGI: 3.08 µM
HOP-62 NSCLC
  GI50: 1.66 µM
  TGI: 3.54 µM
HOP-92 NSCLC
  GI50: 1.4 µM
  TGI: 2.86 µM
HS 578T breast
  GI50: 1.4 µM
  TGI: 3.96 µM
HT29 colon
  GI50: 1.58 µM
  TGI: 3.11 µM
IGROV1 ovarian
  GI50: 1.46 µM
  TGI: 3.42 µM
K-562 leukemia
  GI50: 1.16 µM
  TGI: 2.52 µM
KM12 colon
  GI50: 1.47 µM
  TGI: 2.89 µM
LOX IMVI melanoma
  GI50: 1.47 µM
  TGI: 3.12 µM
M14 melanoma
  GI50: 1.7 µM
  TGI: 3.67 µM
MALME-3M melanoma
  GI50: 1.4 µM
  TGI: 2.83 µM
MCF7 breast
  GI50: 1.24 µM
  TGI: 2.61 µM
MDA-MB-231 breast
  GI50: 1.75 µM
  TGI: 3.62 µM
MDA-MB-435
  GI50: 1.61 µM
  TGI: 3.21 µM
MOLT-4 leukemia
  GI50: 1.31 µM
  TGI: 3.97 µM
NCI-H226 lung
  GI50: 1.8 µM
  TGI: 3.93 µM
NCI-H23 lung
  GI50: 1.54 µM
  TGI: 3.43 µM
NCI-H460 lung
  GI50: 1.46 µM
  TGI: 2.86 µM
NCI-H522 lung
  GI50: 1.8 µM
  TGI: 3.84 µM
NCI/ADR-RES ovarian
  GI50: 1.89 µM
  TGI: 5.98 µM
OVCAR-3 ovarian
  GI50: 1.49 µM
  TGI: 2.93 µM
OVCAR-4 ovarian
  GI50: 1.36 µM
  TGI: 3.22 µM
OVCAR-5 ovarian
  GI50: 1.56 µM
  TGI: 3.22 µM
OVCAR-8 ovarian
  GI50: 2.42 µM
  TGI: 9.25 µM
PC-3 prostate
  GI50: 0.885 µM
  TGI: 2.38 µM
RPMI-8226 leukemia
  GI50: 1.45 µM
  TGI: 4 µM
RXF 393 renal
  GI50: 2.15 µM
  TGI: 5.77 µM
SF-268 CNS
  GI50: 1.49 µM
  TGI: 2.93 µM
SF-295 CNS
  GI50: 1.37 µM
  TGI: 3.01 µM
SF-539 CNS
  GI50: 1.71 µM
  TGI: 3.31 µM
SK-MEL-2 melanoma
  GI50: 1.89 µM
  TGI: 5.22 µM
SK-MEL-28 melanoma
  GI50: 2.87 µM
  TGI: 10.1 µM
SK-MEL-5 melanoma
  GI50: 1.5 µM
  TGI: 2.84 µM
SK-OV-3 ovarian
  GI50: 1.64 µM
  TGI: 3.34 µM
SN12C renal
  GI50: 2.01 µM
  TGI: 4.55 µM
SNB-19 CNS
  GI50: 1.73 µM
  TGI: 4.18 µM
SNB-75 CNS
  GI50: 1.55 µM
  TGI: 3 µM
SR leukemia
  GI50: 0.197 µM
  TGI: 0.625 µM
SW-620 colon
  GI50: 1.52 µM
  TGI: 3.26 µM
T-47D breast
  GI50: 1.29 µM
  TGI: 3.06 µM
TK-10 renal
  GI50: 1.39 µM
  TGI: 3.25 µM
U251 CNS
  GI50: 1.48 µM
  TGI: 3.02 µM
UACC-257 melanoma
  GI50: 1.76 µM
  TGI: 3.5 µM
UACC-62 melanoma
  GI50: 1.49 µM
  TGI: 3.46 µM
UO-31 renal
  GI50: 1.49 µM
  TGI: 3.15 µM
